We go through five molecules from patent US20190192699A1, “NUCLEAR IMAGING AND RADIOTHERAPEUTICS AGENTS TARGETING CARBONIC ANHYDRASE IX AND USES THEREOF” (THE JOHNS HOPKINS UNIVERSITY, priority 2016, published 2019).

Assay [1] has as its target T1, CAIX (Homo sapiens, UniProt Q16790). Put plainly: Competitive fluorescence polarization assay for [Al19F]XYIMSR-04, [63/65Cu]XYIMSR-06 and [175Lu]XYIMSR-01. To be noted: 100 nM CAIX, 80 nM FITC-labeled ligand; read-out: IC50, competitive fluorescence polarization (similar method). Type of assay: binding. On the set-up: purchased R&D Systems. From the text:
(§1) General Procedures. Solvents and chemicals obtained from commercial sources were of analytical grade or better and used without further purification. Fmoc-protected azidolysine, HBTU, and N-α-fmoc-L-aspartic acid α-tert-butyl ester were purchased from Chem Impex International, Inc. (Wooddale, Ill.). Carrier-free [^111In]InCl3 was purchased from MDS Nordion (Ottawa, ON, Canada). DOTA-NHS-ester (1,4,7,10-tetraazacyclododecane-1,4,7,10-tetraacetic acid mono N-hydroxysuccinimide ester) was purchased from Macrocyclics, Inc. (Dallas, Tex.). Indium (III) nitrate, triethylsilane (Et3SiH), N,N-diisopropylethylamine (DIEA), triethylamine (TEA), piperidine, 4,4-bis(4-hydroxyphenyl)valeric acid, copper iodide (CuI), and tris[(1-benzyl-1H-1,2,3-triazol-4-yl)methyl]amine (TBTA) were purchased from Sigma-Aldrich (Saint Louis, Mo.). Pre-loaded O-bis-(aminoethyl)ethylene glycol on trityl resin was purchased from EMD Millipore (Billerica, Mass.). Flash chromatography was performed using MP SiliTech 32-63 D 60 Å silica gel purchased from Bodman (Aston, Pa.). Recombinant human CAIX was purchased from R&D Systems (Minneapolis, Minn.). 1H NMR spectra were recorded on a Bruker Ultrashield 500 MHz spectrometer. Chemical shifts (δ) were reported in ppm downfield by reference to proton resonances resulting from incomplete deuteration of the NMR solvent. ESI mass spectra were obtained on a Bruker Daltonics Esquire 3000 Plus spectrometer (Billerica, Mass.).
Competitive Fluorescence Polarization Assay for [Al^19F]XYIMSR-04, [^63/65Cu]XYIMSR-06, and [^175Lu]XYIMSR-01. Fluorescence polarization (FP) experiments were performed in 21 μL of the assay buffer (12.5 mM Tris-HCl, pH 7.5, 75 mM NaCl) in transparent flat bottom 384 well Small Volume™ LoBase Microplates (Greiner Bio-One, Frickenhausen Germany). The FP reaction employed 100 nM of purified CAIX (R&D systems, Minneapolis, Minn.) and 80 nM FITC-labeled ligand within the assay buffer. The FP values were measured as mP units using the Safire2™ plate reader (Tecan, Morrisville, N.C.) with excitation at 475 nm and emission at 532 nm emission. 100 nM CAIX was incubated with serially diluted (from 8 μM to 488.2 fM) concentrations of the […] targeting molecules, 2, [Al^19F]XYIMSR-04, [^63/65Cu]XYIMSR-06 and [^175Lu]XYIMSR-01 for 30 min at room temperature in 384 well plates. 80 nM FITC-labeled ligand was added to each well and the reaction was incubated for 30 min at room temperature followed by FP measurements. Experiments were carried out in triplicate and the concentration resulting in 50% response (IC50) was calculated in GraphPad Prism 5 (GraphPad Software, La Jolla, Calif.) using the sigmoidal dose-response regression function.

Assay [2] has as its target T1, CAIX. Put plainly: Competitive fluorescence polarization assay for [113/115In]XYIMSR-01. The following applies: for IC50: 100 nM CAIX, 80 nM FITC-labeled 8, read-out: IC50, inhibition of fluorescence polarization of FITC labeled 8; for binding affinity to CAIX (in words): competitive fluorescence polarization. Type of assay: binding. Set-up: purchased R&D Systems.
Description: as §1
Competitive Fluorescence Polarization Assay for [^113/115In]XYIMSR-01. Fluorescence polarization (FP) experiments were performed in 21 μL of the assay buffer (12.5 mM Tris-HCl, pH 7.5, 75 mM NaCl) in black flat bottom 384-well microplates (Corning, Inc., New York, N.Y.) The FP reaction employed 100 nM of purified CAIX (R&D systems, Minneapolis, Minn.) and 80 nM FITC-labeled 8 (Wichert, et al., 2015) within the assay buffer. The FP values were measured as mP units using the Victor3 multi-label plate reader equipped with excitation (485 nm) and emission (535 nm) filters (Perkin Elmer, Waltham, Mass.). 100 nM CAIX was incubated with serially diluted (from 1 μM to 61 fM) concentrations of the three targeting molecules, 2, XYIMSR-01, and [^113/115In]XYIMSR-01 for 30 min at room temperature in 384-well plates. 80 nM 8 was added to each well and the reaction was incubated for 30 min at room temperature followed by FP measurement. Experiments were carried out in triplicate and the concentration resulting in 50% response (IC50) was calculated in GraphPad Prism 5 (GraphPad Software, La Jolla, Calif.) using the sigmoidal dose-response regression function.
Background: Polarisation of emitted light reports the rotation of a fluorescent probe.

What is called IC50 is the concentration that gives 50% inhibition. Consider `CC(CCC(=O)N[C@@H](CC(=O)N[C@@H](CC(=O)N[C@@H](CCCCn1cc(CCCC(=O)Nc2nnc(S(N)(=O)=O)s2)nn1)C(=O)NCCOCCOCCNC(=O)CN1CCN2CCN(CC1)CC(=O)[O][Al]([F])[O]C(=O)C2)C(=O)O)C(=O)O)(c1ccc(O)cc1)c1ccc(O)cc1` [[Al^19F]XYIMSR-04, [Al^19F] 2,2′-(7-((14S,18S,22S)-18,22-dicarboxy-27,27-bis(4-hydroxyphenyl)-2,13,16,20,24-pentaoxo-14-(4-(4-(4-oxo-4-((5-sulfamoyl-1,3,4-thiadiazol-2-yl)amino)butyl)-1H-1,2,3-triazol-1-yl)butyl)-6,9-dioxa-3,12,15,19,23-pentaazaoctacosyl)-1,4,7-triazonane-1,4-diyl)diacetic acid], for which, at CAIX [1], the IC50 is 96.7 ± 3.3 nM.
Turning to `CC(CCC(=O)NC(CC(=O)NC(CC(=O)NC(CCCCn1cc(CCCC(=O)Nc2nnc(S(N)(=O)=O)s2)nn1)C(=O)NCCOCCOCCNC(=O)CN1CCN(CC(=O)O)CCN(CC(=O)O)CCN(CC(=O)O)CC1)C(=O)O)C(=O)O)(c1ccc(O)cc1)c1ccc(O)cc1` (stereo not shown) [[^113/115In]XYIMSR-01], at CAIX [2], the concentration for half-maximal inhibition (IC50) came out at 108 nM and the “binding affinity to CAIX (in words)” value is on record as “high binding affinity”.
Turning to `CC(CCC(=O)N[C@@H](CC(=O)N[C@@H](CC(=O)N[C@@H](CCCCn1cc(CCCC(=O)Nc2nnc(S(N)(=O)=O)s2)nn1)C(=O)NCCOCCOCCNC(=O)CN1CCN(CC(=O)O)CCN(CC(=O)O)CCN(CC(=O)O)CC1)C(=O)O)C(=O)O)(c1ccc(O)cc1)c1ccc(O)cc1.[Lu]` [[^175Lu]XYIMSR-01, [^175Lu]2,2′,2″-(10-((14S,18S,22S)-18,22-dicarboxy-27,27-bis(4-hydroxyphenyl)-2,13,16,20,24-pentaoxo-14-(4-(4-(4-oxo-4-((5-sulfamoyl-1,3,4-thiadiazol-2-yl)amino)butyl)-1H-1,2,3-triazol-1-yl)butyl)-6,9-dioxa-3,12,15,19,23-pentaazaoctacosyl)-1,4,7,10-tetraazacyclododecane-1,4,7-triyl)triacetic acid], the IC50 at CAIX [1] amounted to 122 ± 3.8 nM.
In the case of `CC(CCC(=O)N[C@@H](CC(=O)N[C@@H](CC(=O)N[C@@H](CCCCn1cc(CCCC(=O)Nc2nnc(S(N)(=O)=O)s2)nn1)C(=O)NCCOCCOCCNC(=S)Nc1ccc(CC2CN(CC(=O)O)CCN(CC(=O)O)CCN2CC(=O)O)cc1)C(=O)O)C(=O)O)(c1ccc(O)cc1)c1ccc(O)cc1.[Cu]` (stereo partly drawn) [[^63/65Cu]XYIMSR-06, [^63/65Cu]2,2′,2″-(2-(4-(3-((11S,15S,19S)-15,19-dicarboxy-24,24-bis(4-hydroxyphenyl)-10,13,17,21-tetraoxo-11-(4-(4-(4-oxo-4-((5-sulfamoyl-1,3,4-thiadiazol-2-yl)amino)butyl)-1H-1,2,3-triazol-1-yl)butyl)-3,6-dioxa-9,12,16,20-tetraazapentacosyl)thioureido)benzyl)-1,4,7-triazonane-1,4,7-triyl)triacetic acid], at CAIX [1], the IC50 came out at 156 ± 4.3 nM.
Consider `CC(CCC(=O)N[C@@H](CC(=O)N[C@@H](CC(=O)N[C@@H](CCCCn1cc(CCCC(=O)Nc2nnc(S(N)(=O)=O)s2)nn1)C(=O)NCCOCCOCCNC(=O)CN1CCN(CC(=O)O)CCN(CC(=O)O)CCN(CC(=O)O)CC1)C(=O)O)C(=O)O)(c1ccc(O)cc1)c1ccc(O)cc1` [XYIMSR-01, 2,2′,2″-(10-((14S,18S,22S)-18,22-dicarboxy-27,27-bis(4-hydroxyphenyl)-2,13,16,20,24-pentaoxo-14-(4-(4-(4-oxo-4-((5-sulfamoyl-1,3,4-thiadiazol-2-yl)amino)butyl)-1H-1,2,3-triazol-1-yl)butyl)-6,9-dioxa-3,12,15,19,23-pentaazaoctacosyl)-1,4,7,10-tetraazacyclododecane-1,4,7-triyl)triacetic acid], for which, at CAIX [2], the IC50 was 67 nM and the “binding affinity to CAIX (in words)” value is recorded as “high binding affinity”.
